Source: US20260014285A1, “POLYPEPTIDE COMPOUND, AND COMPLEX AND USE THEREOF” (HANGZHOU HEALTHYTIDE BIOTECHNOLOGY CO., LTD., priority 2022, published 2026)
Non-standard residues stand in square brackets, D forms with d. Residues, ends and D or L forms follow the SMILES beside them. ξ: configuration not given here. *: point of attachment. DOTA = O=C(O)CN1CCN(CC(=O)O)CCN(CC(=O)*)CCN(CC(=O)O)CC1; PEG4 = NCCOCCOCCOCCOCCC(=O)O; ξIle = CC[C@H](C)C(N)C(=O)O; Pip = O=C(O)[C@@H]1CCCCN1; ξN = NC(=O)CC(N)C(=O)O; AEEA = NCCOCCOCC(=O)O; AEA = NCCOCC(=O)O

Legend:
integrin α5β1 = integrin α5β1 (Homo sapiens, UniProt P05556+P08648); assay: Target affinity test by surface plasmon resonance (SPR), integrin α5β1; format: binding; conditions: for affinity constant (KD) to integrin α5β1, in words: SPR; for Kd: SPR (Biacore T200), CM5 chip, 25° C., KD=Kd/Ka
Chain of integrin α5β1 (P08648 42-995 limits assumed): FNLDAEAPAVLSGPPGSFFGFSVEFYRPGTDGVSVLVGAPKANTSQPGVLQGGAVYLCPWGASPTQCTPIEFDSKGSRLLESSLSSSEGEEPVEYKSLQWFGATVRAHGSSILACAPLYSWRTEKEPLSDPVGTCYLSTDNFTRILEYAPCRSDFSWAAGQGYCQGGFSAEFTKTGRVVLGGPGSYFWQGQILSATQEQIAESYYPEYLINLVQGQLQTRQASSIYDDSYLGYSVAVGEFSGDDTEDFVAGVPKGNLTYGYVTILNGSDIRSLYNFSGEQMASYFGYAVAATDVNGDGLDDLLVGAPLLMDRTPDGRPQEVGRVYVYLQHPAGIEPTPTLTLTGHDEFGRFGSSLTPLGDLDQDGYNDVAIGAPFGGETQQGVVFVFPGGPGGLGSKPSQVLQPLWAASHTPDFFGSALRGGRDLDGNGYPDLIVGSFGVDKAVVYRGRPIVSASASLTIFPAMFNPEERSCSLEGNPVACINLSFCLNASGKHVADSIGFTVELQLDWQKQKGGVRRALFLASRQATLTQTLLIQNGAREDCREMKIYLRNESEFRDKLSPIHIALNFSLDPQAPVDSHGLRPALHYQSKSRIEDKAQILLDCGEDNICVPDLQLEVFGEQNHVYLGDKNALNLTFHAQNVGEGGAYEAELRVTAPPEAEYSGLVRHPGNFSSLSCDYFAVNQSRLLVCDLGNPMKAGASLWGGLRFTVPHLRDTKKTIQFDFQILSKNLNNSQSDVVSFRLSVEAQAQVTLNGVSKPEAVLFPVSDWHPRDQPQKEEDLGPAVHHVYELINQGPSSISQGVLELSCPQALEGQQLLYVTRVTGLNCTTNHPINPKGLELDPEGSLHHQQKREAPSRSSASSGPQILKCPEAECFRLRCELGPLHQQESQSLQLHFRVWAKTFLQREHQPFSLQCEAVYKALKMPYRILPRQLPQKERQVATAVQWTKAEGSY
Chain of integrin α5β1 (P05556 21-728 limits assumed): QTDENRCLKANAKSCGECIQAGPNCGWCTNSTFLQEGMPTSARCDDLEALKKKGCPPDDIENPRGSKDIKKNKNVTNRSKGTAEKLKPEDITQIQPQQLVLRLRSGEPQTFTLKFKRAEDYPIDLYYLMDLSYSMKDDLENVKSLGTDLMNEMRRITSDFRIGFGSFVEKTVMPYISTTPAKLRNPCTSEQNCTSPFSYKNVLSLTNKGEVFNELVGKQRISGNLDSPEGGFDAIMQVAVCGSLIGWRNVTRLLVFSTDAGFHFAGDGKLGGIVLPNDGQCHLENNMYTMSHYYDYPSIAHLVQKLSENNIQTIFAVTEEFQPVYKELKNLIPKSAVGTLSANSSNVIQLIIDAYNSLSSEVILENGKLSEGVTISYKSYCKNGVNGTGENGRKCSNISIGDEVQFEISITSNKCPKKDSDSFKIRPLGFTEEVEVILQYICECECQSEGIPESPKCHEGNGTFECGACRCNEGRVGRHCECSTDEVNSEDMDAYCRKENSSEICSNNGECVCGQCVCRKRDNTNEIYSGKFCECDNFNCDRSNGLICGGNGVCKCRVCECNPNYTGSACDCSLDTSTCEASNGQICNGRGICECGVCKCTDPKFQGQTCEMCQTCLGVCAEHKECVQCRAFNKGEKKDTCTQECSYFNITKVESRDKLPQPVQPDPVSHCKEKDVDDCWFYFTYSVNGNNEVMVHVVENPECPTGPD
Description: (§1) Surface plasmon resonance (SPR) technique was used to test the affinity of the compound in the examples to the target protein integrin α5β1. Specifically, the following operations were performed.
(§2) The affinity constants (KD) of the compounds to the target proteins integrin α5β1, αvβ3, and αvβ5 were calculated according to the formula of KD=Kd/Ka (the lower the value of KD, the higher the affinity of the compounds of the examples to the target protein integrin α5β1).

integrin αvβ3 = integrin αvβ3 (Homo sapiens, UniProt P05106+P06756); assay: Target affinity test by surface plasmon resonance (SPR), integrin αvβ3; format: binding; conditions: for affinity constant (KD) to integrin αvβ3, in words: SPR; for Kd: SPR (Biacore T200), CM5 chip, 25° C., KD=Kd/Ka
Chain of integrin αvβ3 (P06756 31-992 limits assumed): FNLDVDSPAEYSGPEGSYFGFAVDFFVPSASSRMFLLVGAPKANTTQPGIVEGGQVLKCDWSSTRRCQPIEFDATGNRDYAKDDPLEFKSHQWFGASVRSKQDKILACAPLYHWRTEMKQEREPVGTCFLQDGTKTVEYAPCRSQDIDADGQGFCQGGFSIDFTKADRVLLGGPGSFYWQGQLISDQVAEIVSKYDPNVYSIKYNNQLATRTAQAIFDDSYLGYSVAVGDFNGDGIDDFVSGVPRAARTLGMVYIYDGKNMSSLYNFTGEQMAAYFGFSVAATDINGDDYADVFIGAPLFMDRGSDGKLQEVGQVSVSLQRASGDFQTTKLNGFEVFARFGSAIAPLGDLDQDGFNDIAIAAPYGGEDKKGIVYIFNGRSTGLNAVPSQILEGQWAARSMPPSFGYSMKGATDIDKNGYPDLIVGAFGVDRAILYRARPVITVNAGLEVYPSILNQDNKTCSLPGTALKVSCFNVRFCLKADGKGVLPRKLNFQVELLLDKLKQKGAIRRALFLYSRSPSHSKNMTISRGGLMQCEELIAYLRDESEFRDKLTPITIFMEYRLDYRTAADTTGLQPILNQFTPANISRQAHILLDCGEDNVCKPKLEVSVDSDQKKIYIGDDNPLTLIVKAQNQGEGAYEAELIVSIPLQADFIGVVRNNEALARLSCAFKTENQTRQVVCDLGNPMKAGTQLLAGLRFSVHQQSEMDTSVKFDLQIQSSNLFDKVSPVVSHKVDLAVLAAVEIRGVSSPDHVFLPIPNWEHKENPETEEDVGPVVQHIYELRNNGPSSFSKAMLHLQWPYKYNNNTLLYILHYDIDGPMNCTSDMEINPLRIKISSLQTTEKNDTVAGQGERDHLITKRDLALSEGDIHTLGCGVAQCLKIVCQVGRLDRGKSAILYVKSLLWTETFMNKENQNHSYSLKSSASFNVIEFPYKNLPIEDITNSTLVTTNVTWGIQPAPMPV
Chain of integrin αvβ3 (P05106 27-718 limits assumed): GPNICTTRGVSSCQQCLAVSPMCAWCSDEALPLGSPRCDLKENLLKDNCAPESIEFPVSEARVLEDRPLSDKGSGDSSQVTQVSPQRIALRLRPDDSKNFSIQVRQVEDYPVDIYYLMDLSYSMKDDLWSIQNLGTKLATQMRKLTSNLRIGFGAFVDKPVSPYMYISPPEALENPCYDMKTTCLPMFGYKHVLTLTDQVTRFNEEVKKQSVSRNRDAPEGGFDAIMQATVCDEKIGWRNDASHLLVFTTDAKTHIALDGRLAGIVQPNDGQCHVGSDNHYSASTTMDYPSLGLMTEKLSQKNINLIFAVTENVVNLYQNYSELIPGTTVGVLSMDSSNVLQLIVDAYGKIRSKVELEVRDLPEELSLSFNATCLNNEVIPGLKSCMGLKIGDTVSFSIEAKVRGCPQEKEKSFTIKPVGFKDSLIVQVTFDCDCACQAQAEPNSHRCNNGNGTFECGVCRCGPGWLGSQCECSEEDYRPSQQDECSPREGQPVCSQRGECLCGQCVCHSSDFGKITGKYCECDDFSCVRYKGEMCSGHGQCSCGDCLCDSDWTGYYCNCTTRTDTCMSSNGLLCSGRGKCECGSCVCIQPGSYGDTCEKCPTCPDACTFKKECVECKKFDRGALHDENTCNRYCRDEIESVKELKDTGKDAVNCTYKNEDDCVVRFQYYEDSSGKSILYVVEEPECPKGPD
Description: as §1, §2

in vivo = assay: in vivo; parameters: species or system mice; conditions: M-NSG, mouse, iv, 100 uCi, total radioactivity
Description: For example, labeling TM4 with radioactive ^68Ga: An aqueous solution of TM4 (DOTA-Asn-Asp-Val-Ile-Asn-OH) (20 μg) was added to the prepared ^68GaCl3 solution, and the pH was adjusted to 3-5 with aqueous sodium acetate and acetic acid. This system was reacted at 70-95° C. for 15 min, and then purified after the reaction was completed to obtain a labeled solution of ^68Ga-DOTA-Asn-Asp-Val-Ile-Asn-OH (^68Ga-TM4).
All compounds were labeled with ^68Ga in the same way as described above.
Approximately 100 μCi of ^68Ga injection was injected into the tail vein of M-NSG mice inoculated with H1975. […] Table 6 was obtained by image post-processing.

| SMILES | affinity constant (KD) to integrin α5β1, in words (integrin α5β1) | Kd (integrin α5β1) | affinity constant (KD) to integrin αvβ3, in words (integrin αvβ3) | Kd (integrin αvβ3) | other results |
| --- | --- | --- | --- | --- | --- |
| CC[C@H](C)C(NC(=O)[C@@H](NC(=O)[C@H](CC(=O)O)NC(=O)[C@H](CC(N)=O)NC(=O)[C@H](CC(=O)O)NC(=O)CNC(=O)[C@H](CCCNC(=N)N)NC(=O)COCCNC(=O)CN1CCN(CC(=O)O)CCN(CC(=O)O)CCN(CC(=O)O)CC1)C(C)C)C(=O)N[C@@H](CC(N)=O)C(=O)O (stereo partly shown) [TM15] ({DOTA-AEA}-RGDNDV[ξIle]N-OH) | better than nM level | 0.992 nM | nM level | 1.69 nM |  |
| CC[C@H](C)C(NC(=O)[C@@H](NC(=O)[C@H](CC(=O)O)NC(=O)[C@H](CC(N)=O)NC(=O)COCCOCCNC(=O)CN1CCN(CC(=O)O)CCN(CC(=O)O)CCN(CC(=O)O)CC1)C(C)C)C(=O)N[C@@H](CC(N)=O)C(=O)O (stereo partly shown) [TM14] ({DOTA-AEEA}-NDV[ξIle]N-OH) | better than nM level | 9.43 nM |  | 36.7 nM |  |
| CC[C@H](C)[C@H](NC(=O)[C@@H](NC(=O)[C@H](CC(=O)O)NC(=O)[C@H](CC(N)=O)NC(=O)CCOCCOCCOCCOCCNC(=O)CN1CCN(CC(=O)O)CCN(CC(=O)O)CCN(CC(=O)O)CC1)C(C)C)C(=O)N[C@@H](CC(N)=O)C(=O)O [TM5] ({DOTA-PEG4}-NDVIN-OH) | better than nM level | 2.77 nM |  |  |  |
| CC[C@H](C)[C@H](NC(=O)[C@@H](NC(=O)[C@H](CC(=O)O)NC(=O)[C@H](CC(N)=O)NC(=O)CN1CCN(CC(=O)O)CCN(CC(=O)O)CCN(CC(=O)O)CC1)C(C)C)C(=O)N[C@@H](CC(N)=O)C(=O)O [^68Ga-TM4, ^68Ga-DOTA-Asn-Asp-Val-Ile-Asn-OH, metal not drawn] ({DOTA}-NDVIN-OH) |  |  |  |  | tissue uptake at 1 h (in vivo; % ID/g Bone): 0.3 %ID/g; tissue uptake at 1 h (in vivo; % ID/g Brain): 0.5 %ID/g; tissue uptake at 1 h (in vivo; % ID/g Heart): 0.96 %ID/g; tissue uptake at 1 h (in vivo; % ID/g Intestine): 0.56 %ID/g; tissue uptake at 1 h (in vivo; % ID/g Kidney): 4.8 %ID/g; tissue uptake at 1 h (in vivo; % ID/g Liver): 0.79 %ID/g; tissue uptake at 1 h (in vivo; % ID/g Lung): 0.47 %ID/g; tissue uptake at 1 h (in vivo; % ID/g Muscle): 0.36 %ID/g; tissue uptake at 1 h (in vivo; % ID/g Tumor): 1.4 %ID/g |
| CC[C@H](C)[C@H](NC(=O)[C@@H](NC(=O)[C@H](CC(=O)O)NC(=O)[C@H](CC(N)=O)NC(=O)CN1CCN(CC(=O)O)CCN(CC(=O)O)CCN(CC(=O)O)CC1)C(C)C)C(=O)N[C@@H](CC(N)=O)C(=O)O [TM4, DOTA-Asn-Asp-Val-Ile-Asn-OH] ({DOTA}-NDVIN-OH) |  | 16 nM | nM level | 2.88 nM |  |
| CC[C@H](C)[C@H](NC(=O)[C@@H]1CCCCN1C(=O)[C@H](CC(=O)O)NC(=O)[C@H](CC(N)=O)NC(=O)CN1CCN(CC(=O)O)CCN(CC(=O)O)CCN(CC(=O)O)CC1)C(=O)NC(CC(N)=O)C(=O)O (stereo partly shown) [TM9] ({DOTA}-ND[Pip]I[ξN]-OH) | better than nM level | 5.58 nM | nM level | 1.8 nM |  |
